Experimental data published in US10544149B2, “Bicyclic alkyne derivatives and uses thereof” (Agency for Science, Technology and Research, priority 2013, dated 2020).

Legend:
MNK1 = MNK1 (Homo sapiens, UniProt Q9BUB5); assay: MNK1 enzymatic assay; assay type: biochemical
MNK2 = MNK2 (Homo sapiens, UniProt Q9HBH9); assay: MNK2 enzymatic assay; assay type: biochemical
[1] = test system: eIF4e phosphorylation in Hela cell line; assay: eIF4e phosphorylation inhibition in Hela cell line; assay type: cell-based; conditions: Homo sapiens, cellular

Sequence of MNK1 (Q9BUB5 whole entry): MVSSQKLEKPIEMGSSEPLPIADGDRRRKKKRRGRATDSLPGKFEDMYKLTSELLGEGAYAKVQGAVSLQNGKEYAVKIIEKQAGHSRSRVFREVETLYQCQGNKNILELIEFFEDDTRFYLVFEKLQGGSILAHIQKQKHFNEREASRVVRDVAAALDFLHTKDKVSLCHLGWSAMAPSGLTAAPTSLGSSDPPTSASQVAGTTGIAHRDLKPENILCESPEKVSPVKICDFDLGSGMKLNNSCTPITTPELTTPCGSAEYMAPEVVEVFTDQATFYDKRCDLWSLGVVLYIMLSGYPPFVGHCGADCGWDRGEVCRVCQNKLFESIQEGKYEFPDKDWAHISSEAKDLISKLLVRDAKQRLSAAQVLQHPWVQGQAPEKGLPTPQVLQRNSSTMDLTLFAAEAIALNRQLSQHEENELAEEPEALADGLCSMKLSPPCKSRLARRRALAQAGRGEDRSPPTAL
Sequence of MNK2 (Q9HBH9 whole entry): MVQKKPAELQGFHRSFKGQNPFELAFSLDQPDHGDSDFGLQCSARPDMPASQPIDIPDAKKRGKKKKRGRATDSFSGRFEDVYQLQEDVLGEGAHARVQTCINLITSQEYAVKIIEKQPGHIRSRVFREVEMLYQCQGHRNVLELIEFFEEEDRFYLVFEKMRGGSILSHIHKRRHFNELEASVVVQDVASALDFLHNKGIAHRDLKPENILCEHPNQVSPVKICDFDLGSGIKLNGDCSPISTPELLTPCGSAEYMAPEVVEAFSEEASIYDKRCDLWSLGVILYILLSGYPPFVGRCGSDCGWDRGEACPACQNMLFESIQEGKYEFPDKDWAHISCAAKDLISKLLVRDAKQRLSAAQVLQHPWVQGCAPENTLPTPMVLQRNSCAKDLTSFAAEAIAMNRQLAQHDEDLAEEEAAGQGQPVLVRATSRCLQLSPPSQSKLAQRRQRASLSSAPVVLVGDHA

Row | Compound | IC50 (MNK1) | IC50 (MNK2) | IC50 [1]
1 | O=C(CCl)Nc1cc(C#Cc2cnc3ccc(-c4ccc(C(=O)N5CCOCC5)cc4)nn23)ccn1 [Example 043] | < 0.5 µM | < 0.5 µM | < 5 µM
2 | CNCC(=O)Nc1cc(C#Cc2cnc3ccc(-c4ccc(C(=O)N5CCOCC5)cc4)nn23)ccn1 [Example 044, 2-(methylamino)-N-(4-((6-(4-(morpholine-4-carbonyl)phenyl)imidazo[1,2-b]pyridazin-3-yl)ethynyl)pyridin-2-yl)acetamide] | < 0.5 µM | < 0.5 µM | < 5 µM
3 | O=C(c1ccc(-c2ccc3ncc(C#Cc4ccnc5[nH]ccc45)n3n2)cc1)N1CCNCC1 [Example 045, (4-(3-((1H-pyrrolo[2,3-b]pyridin-4-yl)ethynyl)imidazo[1,2-b]pyridazin-6-yl)phenyl)(piperazin-1-yl) methanone] | < 0.5 µM | < 0.5 µM | < 5 µM
4 | Nc1cc(C#Cc2cnc3ccc(-c4ccc(C(=O)N5CCNCC5)cc4)nn23)ccn1 [Example 046, (4-(3-((2-aminopyridin-4-yl)ethynyl)imidazo[1,2-b]pyridazin-6-yl)phenyl)(piperazin-1-yl)methanone] | < 0.5 µM | < 0.5 µM | < 5 µM
5 | Cc1ncccc1Nc1cc(C#Cc2cnc3ccc(-c4ccc(C(=O)N5CCOCC5)cc4)nn23)ccn1 [Example 047, (4-(3-((2-((2-methylpyridin-3-yl)amino)pyridin-4-yl)ethynyl)imidazo[1,2-b]pyridazin-6-yl)phenyl) (morpholino)methanone] | < 0.5 µM | < 0.5 µM | < 5 µM
6 | O=C(c1ccc(-c2ccc3ncc(C#Cc4ccnc(Nc5ccccn5)c4)n3n2)cc1)N1CCOCC1 [Example 048, morpholino(4-(3-((2-(pyridin-2-ylamino)pyridin-4-yl)ethynyl)imidazo[1,2-b]pyridazin-6-yl)phenyl)methanone] | < 0.5 µM | < 0.5 µM | < 5 µM
7 | O=C(c1ccc(-c2ccc3ncc(C#Cc4ccnc(Nc5cccnc5)c4)n3n2)cc1)N1CCOCC1 [Example 049, morpholino(4-(3-((2-(pyridin-3-ylamino)pyridin-4-yl)ethynyl)imidazo[1,2-b]pyridazin-6 yl)phenyl)methanone] | < 0.5 µM | < 0.5 µM | < 5 µM
8 | O=C(c1ccc(-c2ccc3ncc(C#Cc4ccnc(Nc5ccccc5)c4)n3n2)cc1)N1CCOCC1 [Example 051, morpholino(4-(3-((2-(phenylamino)pyridin-4-yl)ethynyl)imidazo[1,2-b]pyridazin-6-yl)phenyl)methanone] | < 0.5 µM | < 0.5 µM | < 5 µM
9 | Cc1ccccc1Nc1cc(C#Cc2cnc3ccc(-c4ccc(C(=O)N5CCOCC5)cc4)nn23)ccn1 [Example 052, morpholino(4-(3-((2-(o-tolylamino)pyridin-4-yl)ethynyl)imidazo[1,2-b]pyridazin-6-yl)phenyl)methanone] | < 0.5 µM | < 0.5 µM | < 5 µM
10 | O=C(c1ccc(-c2ccc3ncc(C#Cc4ccnc(Nc5nccs5)c4)n3n2)cc1)N1CCOCC1 [Example 053, morpholino(4-(3-((2-(thiazol-2-ylamino)pyridin-4-yl)ethynyl)imidazo[1,2-b]pyridazin-6-yl)phenyl)methanone] | < 0.5 µM | < 0.5 µM | < 5 µM
11 | O=C(c1ccc(-c2ccc3ncc(C#Cc4ccnc(Nc5ccncn5)c4)n3n2)cc1)N1CCOCC1 [Example 054, morpholino(4-(3-((2-(pyrimidin-4-ylamino)pyridin-4-yl)ethynyl)imidazo[1,2-b]pyridazin-6-yl)phenyl)methanone] | < 0.5 µM | < 0.5 µM | < 5 µM
12 | O=C(c1ccc(-c2ccc3ncc(C#Cc4ccnc(Nc5ccccc5C(F)(F)F)c4)n3n2)cc1)N1CCOCC1 [Example 055, morpholino(4-(3-((2-((2-(trifluoromethyl)phenyl)amino)pyridin-4-yl)ethynyl)imidazo[1,2-b]pyridazin-6-yl)phenyl)methanone] | < 0.5 µM | < 0.5 µM | < 5 µM
13 | O=C(c1ccc(-c2ccc3ncc(C#Cc4ccnc(Nc5ncccn5)c4)n3n2)cc1)N1CCOCC1 [Example 056, morpholino(4-(3-((2-(pyrimidin-2-ylamino)pyridin-4-yl)ethynyl)imidazo[1,2-b]pyridazin-6 yl)phenyl)methanone] | < 0.5 µM | < 0.5 µM | < 5 µM
14 | Cc1cccc(Nc2cc(C#Cc3cnc4ccc(-c5ccc(C(=O)N6CCOCC6)cc5)nn34)ccn2)c1 [Example 057, morpholino(4-(3-((2-(m-tolylamino)pyridin-4-yl)ethynyl)imidazo[1,2-b]pyridazin-6-yl)phenyl)methanone] | < 0.5 µM | < 0.5 µM | < 5 µM
15 | Cc1ccc(Nc2cc(C#Cc3cnc4ccc(-c5ccc(C(=O)N6CCOCC6)cc5)nn34)ccn2)cc1 [Example 058, morpholino(4-(3-((2-(p-tolylamino)pyridin-4-yl)ethynyl)imidazo[1,2-b]pyridazin-6-yl)phenyl)methanone] | < 0.5 µM | < 0.5 µM | < 5 µM
16 | CC(C)c1ccccc1Nc1cc(C#Cc2cnc3ccc(-c4ccc(C(=O)N5CCOCC5)cc4)nn23)ccn1 [Example 059, (4-(3-((2-(2-isopropylphenylamino)pyridin-4-yl)ethynyl)imidazo[1,2-b]pyridazin-6-yl)phenyl)(morpholino)methanone] | < 0.5 µM | < 0.5 µM | < 5 µM
17 | O=C(c1ccc(-c2ccc3ncc(C#Cc4ccnc(Nc5ccccc5-c5ccccc5)c4)n3n2)cc1)N1CCOCC1 [Example 060, (4-(3-((2-(biphenyl-2-ylamino)pyridin-4-yl)ethynyl)imidazo[1,2-b]pyridazin-6-yl)phenyl)(morpholino)methanone] | < 0.5 µM | < 0.5 µM | < 5 µM
18 | Cc1ccccc1C(=O)Nc1cc(C#Cc2cnc3ccc(-c4ccc(C(=O)N5CCOCC5)cc4)nn23)ccn1 [Example 063, 2-methyl-N-(4-((6-(4-(morpholine-4-carbonyl)phenyl)imidazo[1,2-b]pyridazin-3-yl)ethynyl)pyridin-2-yl)benzamide] | < 0.5 µM | < 0.5 µM | < 5 µM
19 | O=C(Nc1cc(C#Cc2cnc3ccc(-c4ccc(C(=O)N5CCOCC5)cc4)nn23)ccn1)c1ccncc1 [Example 064, N-(4-((6-(4-(morpholine-4-carbonyl)phenyl)imidazo[1,2-b]pyridazin-3-yl)ethynyl)pyridin-2-yl)isonicotinamide] | < 0.5 µM | < 0.5 µM | < 5 µM
20 | O=C(Nc1cc(C#Cc2cnc3ccc(-c4ccc(C(=O)N5CCOCC5)cc4)nn23)ccn1)c1cccnc1 [Example 065, N-(4-((6-(4-(morpholine-4-carbonyl)phenyl)imidazo[1,2-b]pyridazin-3-yl)ethynyl)pyridin-2-yl)nicotinamide] | < 0.5 µM | < 0.5 µM | < 5 µM
21 | O=C(c1ccc(-c2ccc3ncc(C#Cc4ccnc(-c5ccccc5)c4)n3n2)cc1)N1CCOCC1 [Example 070, morpholino(4-(3-((2-phenylpyridin-4-yl)ethynyl)imidazo[1,2-b]pyridazin-6-yl)phenyl)methanone] | < 0.5 µM | < 0.5 µM | < 5 µM
22 | CN(c1ccccc1)c1cc(C#Cc2cnc3ccc(-c4ccc(C(=O)N5CCOCC5)cc4)nn23)ccn1 [Example 071, (4-(3-((2-(methyl(phenyl)amino)pyridin-4-yl)ethynyl)imidazo[1,2-b]pyridazin-6-yl)phenyl) (morpholino) methanone] | < 0.5 µM | < 0.5 µM | < 5 µM
23 | O=C(c1ccc(-c2ccc3ncc(C#Cc4cc(NCc5ccccc5)nc5[nH]ccc45)n3n2)cc1)N1CCOCC1 [Example 073, (4-(3-((6-(benzylamino)-1H-pyrrolo[2,3-b]pyridin-4-yl)ethynyl)imidazo[1,2-b]pyridazin-6-yl)phenyl)(morpholino)methanone] | < 0.5 µM | < 0.5 µM | < 5 µM
24 | NC(=O)c1ccc(-c2ccc3ncc(C#Cc4ccnc(N)c4)n3n2)cc1 [Example 074, 4-(3-((2-aminopyridin-4-yl)ethynyl)imidazo[1,2-b]pyridazin-6-yl)benzamide] | < 0.5 µM | < 0.5 µM | < 5 µM
25 | C(#Cc1cnc2ccc(-c3ccc(CN4CCOCC4)cc3)nn12)c1ccnc2[nH]ccc12 [Example 075, 4-(4-(3-((1H-pyrrolo[2,3-b]pyridin-4-yl)ethynyl)imidazo[1,2-b]pyridazin-6-yl)benzyl)morpholine] | < 0.5 µM | < 0.5 µM | < 5 µM
26 | CN1CCN(C(=O)c2ccc(-c3cn4c(C#Cc5ccccc5)cnc4cn3)cc2)CC1 [Example 089, (4-methylpiperazin-1-yl) (4-(3-(phenylethynyl)imidazo[1,2-a]pyrazin-6-yl)phenyl)methanone] | < 0.5 µM | < 0.5 µM | < 5 µM
27 | O=C(c1ccc(-c2ccc3ncc(C#Cc4ccncc4)n3c2)cc1)N1CCOCC1 [Example 094] | < 0.5 µM | < 0.5 µM | < 5 µM
28 | Cc1cnccc1C#Cc1cnc2ccc(-c3ccc(C(=O)N4CCOCC4)cc3)cn12 [Example 095, (4-(3-((3-methylpyridin-4-yl)ethynyl)imidazo[1,2-a]pyridin-6-yl)phenyl) (morpholino)methanone] | < 0.5 µM | < 0.5 µM | < 5 µM
29 | Nc1cc(C#Cc2cnc3ccc(-c4ccc(C(=O)N5CCOCC5)cc4)cn23)ccn1 [Example 096] | < 0.5 µM | < 0.5 µM | < 5 µM
30 | O=C(c1ccc(-c2ccc3ncc(C#Cc4ccnc5[nH]ncc45)n3c2)cc1)N1CCOCC1 [Example 097, (4-(3-((1H-pyrazolo[3,4-b]pyridin-4-yl)ethynyl)imidazo[1,2-a]pyridin-6-yl)phenyl)(morpholino)methanone] | < 0.5 µM | < 0.5 µM | < 5 µM
